Source: article PMC5765747 (Advanced materials (Deerfield Beach, Fla.), 2017)
Converted amounts (≈) assume the structure as drawn. Where a SMILES comes first, the peptide text is derived from it. Bridges are numbered along the chain shown (N, C = ends). [ ]: non-standard residue; d: D form. The star is where a group is joined. X1 = CC[C@H](C)CCCCC(=O)*; Dab = NCC[C@H](N)C(=O)O

Tested on: P. aeruginosa PA01
Experiment: Overnight culture growth assay
Assay type: cell-based

Work on `CC[C@H](C)CCCCC(=O)N[C@@H](CCN)C(=O)N[C@H](C(=O)N[C@@H](CCN)C(=O)N[C@H]1CCNC(=O)[C@H]([C@@H](C)O)NC(=O)[C@H](CCN)NC(=O)[C@H](CCN)NC(=O)[C@H](CC(C)C)NC(=O)[C@@H](CC(C)C)NC(=O)[C@H](CCN)NC1=O)[C@@H](C)O` [colistin] (X1-[Dab]T[Dab][Dab][Dab][dL]L[Dab][Dab]T; lactam 4-C (inferred); N-terminus assumed) yielded an MIC (P. aeruginosa in LB, 2×10^6 CFU/ml, turbidity at 600 nm) of 0.25 µg/mL (≈ 0.214 µM).

With D[KLAKLAK]2 [dKK] the “inhibitory activity against P. aeruginosa in screening range” value (peptide concentration range 0 – 5 µM, Figure S1) was “no activity”.
